Tests used:
[1] = In vivo pharmacokinetics in mice (oral bioavailability, clearance); settings: for bioavailability: female, BomTac:NMRI-Foxn1nu, mouse, plasma, mice, AUC_DN oral (typically 30 mg/kg) / AUC_DN IV (5 mg/kg) * 100, read-out: F% (oral bioavailability in mice); for Mouse CL (% Qh): mouse clearance as % of hepatic blood flow
Experimental: Bioavailability in mice was determined by comparing plasma exposure after oral administration with plasma exposure after intravenous administration (see Experimental Part). The investigated data set includes PROTACs with very low (F < 1%), low (F < 5%) and medium/high (F > 5%, in bold in Table ) oral bioavailability. Only low-clearance PROTACs were investigated, with clearance of less than 10% of the hepatic blood flow, to avoid extensive hepatic first-pass effect (Mouse CL see Table S2).
The authors confirm that the research in this study complies with all relevant ethical regulations. All animal studies were approved by the internal ethics committee (called “ethics committee”) of Boehringer Ingelheim RCV GmbH & Co KG in the department of Cancer Pharmacology and Disease Positioning. Furthermore, all protocols were approved by the Austrian governmental committee (MA 60 Veterinary office; approval numbers GZ: 903122/2017/21, GZ: 154399/2018/16, GZ: MA 58–670393–2019–18, GZ: MA 58–546776–2022–13). Female BomTac:NMRI-Foxn1nu mice were obtained from Taconic Denmark at an age of 6–8 weeks. After arrival at the local AAALAC accredited animal facility at Boehringer Ingelheim RCV GmbH & Co KG mice were allowed to adjust to housing conditions for at least 5 days before the start of the experiment, i.e. mice in all experiments were 7–9 weeks old. Mice were group-housed under pathogen-free and controlled environmental conditions (21 ± 1.5 °C temperature, 55 ± 10% humidity) and handled according to the institutional, governmental and European Union guidelines (Austrian Animal Protection Laws, GV SOLAS and FELASA). Animal studies were approved as described in the Ethics section. Food and water were provided ad libitum.
All pharmacokinetic studies were conducted with three mice per dose group and testing route. Oral bioavailability was determined by comparing the dose-normalized area under the plasma concentration–time curve (AUC_DN) following oral administration to the AUC_DN after intravenous (IV) administration of the same drug. All oral administrations were conducted with a volume of application of 10 mL/kg, typically at a dose of 30 mg/kg as a solution in a 25% to 40% HP-β-CD at a pH range of 4 to 5. Intravenous administrations were conducted at a dose of 5 mg/kg, with a volume of application of 5 mL/kg in 25% HP-β-CD at a pH of 5. Blood samples were obtained from the vena saphena at five time points after each administration, with the aim of measuring the drug concentration in the plasma. The concentrations of the compound in plasma samples were determined by quantitative HPLC-MS/MS, employing an internal standard. Calibration and quality control samples were prepared using blank plasma from untreated animals. The samples were precipitated with acetonitrile and subsequently injected into an HPLC system (Agilent 1200). The separation was conducted using a gradient of 5 mmol/L ammonium acetate at pH 4.0 and acetonitrile with 0.1% formic acid on a 2.1 mm by 50 mm XBridge BEH C18 reversed-phase column with 2.5 μm particles (Waters). The HPLC was interfaced with an ESI-operated triple quadrupole mass spectrometer (5000 or 6500+ Triple Quad System, SCIEX) operated in multiple reaction monitoring mode. The chromatograms were analyzed using Analyst (SCIEX), and the pharmacokinetic parameters, such as AUC_DN, were calculated using noncompartmental analysis with BI-proprietary software.
The oral bioavailability (F%) was calculated using the following formula: F% = AUC_DN_oral/AUC_DN_IV) * 100.

[2] = BRlogD chromatographic lipophilicity (XBridge Shield RP18); format: physicochemical; settings: XBridge Shield RP18 HPLC column (130 Å, 5 µm, 5 cm × 4.6 mm); 60% ACN / 40% 20 mM ammonium acetate, pH 7
Experimental: Lipophilicity was assessed using three chromatographic descriptors, each simulating distinct aspects of membrane environments. BRlogD is a surrogate of the octanol/water distribution coefficient (log D oct) reflecting a general partitioning across biological membranes. Log k W ^IAM implements an Immobilized Artificial Membrane (IAM) column which provides a lipophilicity index in an environment resembling the membrane phospholipids. Finally, log k′80 PLRP-S reflects retention in a hydrophobic polymeric column environment, mimicking the nonpolar core of lipid bilayers, and acts as a surrogate for the toluene/water partition coefficient (log D tol). Lipophilicity remained within a moderate range across all systems.
All chromatographic measurements were performed using the Thermo Scientific Inc. HPLC DIONEX Ultimate 3000 connected to an RS diode array and the Chromeleon 7.2.10 software (www.thermofisher.com). 1.5 mL HPLC vials, 9 mm PP screw caps, and high-performance ergonomic single-channel variable volume pipettors from VWR Signature were used. A Eutech pH Meter 2700 was used to regulate the pH of each buffer and sample (www.fishersci.com). For all the chromatographic descriptors, the mobile phase consisted of an acetonitrile solution (ACN) and 20 mM AAB, pH 7. Moreover, 10 μL was set as the volume of injection of compound concentrations ranging from 50 to 100 μg/mL in ACN/buffer mixtures. One mL/min was chosen as the isocratic flow rate and 30 °C as the oven temperature. However, each chromatographic system (RP) had its own conditions:
BRlogD as an analog of log Poct required the use of the XBridge Shield RP18 (130 Å, 5 μm, 5 cm × 4.6 mm) column by Waters (www.waters.com). The eluent was composed of a 60% ACN and 40% 20 mM ammonium acetate buffer (v/v) mixture. The retention time was measured for the analyte and the log k′60 was calculated (capacity factor k′60 = [t R (60% ACN) – t 0]/t 0) and then converted to the corresponding BRlogD value using the equation BRlogD = 3.31x + 2.79. In addition, acetone, caffeine, ibuprofen, lidocaine, phenol, and a mixture of uracile, acetophenone, and toluene were used as gold standards.

Row | bioavailability [1] [%] | Mouse CL (% Qh) [1] [% Qh] | chromatographic logD [2] | Structure (SMILES)
1 | 90.9 | 6.0 | 3.25 | Cc1ncsc1-c1ccc([C@H](COC(C)(C)CN2CCC(c3ccc4c(c3)n(C3CCCC3)c3nc(=O)c5c(Br)cccc5n43)CC2)NC(=O)[C@@H]2C[C@@H](O)CN2C(=O)[C@@H](NC(=O)C2(F)CC2)C(C)(C)C)cc1 [B-4]
2 | 0.9 | 8.5 | 2.64 | Cc1ncsc1-c1ccc([C@H](COCCN2CCC(c3ccc4c(c3)n(C3CCCC3)c3nc(=O)c5c(Br)cccc5n43)CC2)NC(=O)[C@@H]2C[C@@H](O)CN2C(=O)[C@@H](NC(=O)C2(F)CC2)C(C)(C)C)cc1 [B-1]
3 | 2.3 | 7.1 | 2.58 | Cc1ncsc1-c1ccc([C@H](CO[C@@H](C)CN2CCC(c3ccc4c(c3)n(C3CCCC3)c3nc(=O)c5c(Br)cccc5n43)CC2)NC(=O)[C@@H]2C[C@@H](O)CN2C(=O)[C@@H](NC(=O)C2(F)CC2)C(C)(C)C)cc1 [B-3]
4 | 1.7 | 5.4 | 2.64 | Cc1ncsc1-c1ccc([C@H](CO[C@H](C)CN2CCC(c3ccc4c(c3)n(C3CCCC3)c3nc(=O)c5c(Br)cccc5n43)CC2)NC(=O)[C@@H]2C[C@@H](O)CN2C(=O)[C@@H](NC(=O)C2(F)CC2)C(C)(C)C)cc1 [B-2]

Further lines, the compound ahead of its results:

Row | Structure (SMILES) | bioavailability [1] [%] | Mouse CL (% Qh) [1] [% Qh] | chromatographic logD [2]
5 | Cc1ncsc1-c1ccc([C@@H](CC[C@@H](C)CCN2CCC(c3ccc4c(c3)n(C3CCCC3)c3nc(=O)c5c(Br)cccc5n43)CC2)NC(=O)[C@@H]2C[C@@H](O)CN2C(=O)[C@@H](NC(=O)C2(F)CC2)C(C)(C)C)cc1 [A5-4] | 1.2 | 2.8 | 2.76
6 | Cc1ncsc1-c1ccc([C@H](C[C@H](C)CN2CCC(c3ccc4c(c3)n(C3CCCC3)c3nc(=O)c5c(Br)cccc5n43)CC2)NC(=O)[C@@H]2C[C@@H](O)CN2C(=O)[C@@H](NC(=O)C2(F)CC2)C(C)(C)C)cc1 [A3-2] | 5.4 | 3.6 | 3.29
7 | Cc1ncsc1-c1ccc([C@H](CC[C@@H](C)CCN2CCC(c3ccc4c(c3)n(C3CCCC3)c3nc(=O)c5c(Br)cccc5n43)CC2)NC(=O)[C@@H]2C[C@@H](O)CN2C(=O)[C@@H](NC(=O)C2(F)CC2)C(C)(C)C)cc1 [A5-3] | 31.5 | 3.9 | 2.8
8 | Cc1ncsc1-c1ccc([C@H](CCCN2CCC(c3ccc4c(c3)n(C3CCCC3)c3nc(=O)c5c(Br)cccc5n43)CC2)NC(=O)[C@@H]2C[C@@H](O)CN2C(=O)[C@@H](NC(=O)C2(F)CC2)C(C)(C)C)cc1 [A3-1] | 0.6 | 7.9 | 2.29
9 | Cc1ncsc1-c1ccc([C@H](C[C@@H](C)CN2CCC(c3ccc4c(c3)n(C3CCCC3)c3nc(=O)c5c(Br)cccc5n43)CC2)NC(=O)[C@@H]2C[C@@H](O)CN2C(=O)[C@@H](NC(=O)C2(F)CC2)C(C)(C)C)cc1 [A3-3] | 16.4 | 9.3 | 3.32
10 | Cc1ncsc1-c1ccc([C@H](CC[C@H](C)CCN2CCC(c3ccc4c(c3)n(C3CCCC3)c3nc(=O)c5c(Br)cccc5n43)CC2)NC(=O)[C@@H]2C[C@@H](O)CN2C(=O)[C@@H](NC(=O)C2(F)CC2)C(C)(C)C)cc1 [A5-2] | 22.1 | 2.3 | 2.76
11 | Cc1ncsc1-c1ccc([C@H](CCCCCN2CCC(c3ccc4c(c3)n(C3CCCC3)c3nc(=O)c5c(Br)cccc5n43)CC2)NC(=O)[C@@H]2C[C@@H](O)CN2C(=O)[C@@H](NC(=O)C2(F)CC2)C(C)(C)C)cc1 [A5-1] | 4.3 | 2.5 | 2.46
